How the values were obtained:
[1] = test system: murine CD4+ and CD8+ T cells; details: not IFN-γ-producing cells; cited from earlier work
[2] = test system: canine DH82 macrophage cell line; assay: Cytokine assay in DH82 macrophage cultures (Example 26); type: cell-based
T cell proliferation = details: published data; cited from earlier work
[3] = test system: Primary canine dermal fibroblasts; assay: Cytokine assay in primary dermal fibroblast cultures (Example 26); type: cell-based
[4] = test system: JAK1-dependent cytokines involved in allergy and inflammation (IL-2, IL-4, IL-6, and IL-13) as well as pruritus (IL-31); details: published data; cited from earlier work
JAK kinases = details: range over JAK kinases; read-out: IC50, inhibition of JAK kinases; cited from earlier work
[5] = test system: erythropoietin, granulocyte/macrophage colony-stimulating factor, IL-12, IL-23; details: GM-CSF, read-out: IC50's, cytokines that do not activate the JAK1 enzyme in cells; cited from earlier work
[6] = test system: BT (Bos taurus turbinate), MDBK (Bos taurus kidney) and MARC 145 (monkey kidney) cells; assay: Lactate dehydrogenase release assay (LDH assay), Example 18; type: cell-based; details: up to concentrations of 1 microg/mL
Description: Oleandrin (PhytoLab, Vestenbergsgreuth, Germany) was dissolved at a concentration of 1 mg/ml in DMSO. The desired concentration range to be used in cytotoxicity testing is 0.005-1 ug/ml in 0.0005-0.1% wt in DMSO, respectively. Lactate dehydrogenase release assay (LDH assay) was be used to determine the cytotoxic effect of different concentration of Oleandrin on different cell cultures. LDH is a cytosolic enzyme that is released only from damaged cells (due to increased membrane permeability) to the outside medium that will convert the lactate in the medium into pyruvate in a coupled reaction that includes the reduction of NAD+ into NADH, the latter is oxidized back to NAD+ in the presence of Diaphorase in the LDH kit mix that leads to the reduction of water soluble tetrazolium (INT), that is also in the kit mix, into red Formazon product that can be read by an ELISA reader at a wave length of 490 nm. […]
This was achieved by preparing different concentration of cells in 100 μl volume staring at 1000 cell/100 μl to 20,000 cell/100 μl in a 2-fold serial dilution manner. […] After performing the test according to the manufacturer instructions, the average OD value reading of the triplicate for each dilution in each set was taken and plotted against number of cells. […] Absorbance is measured at 490 nm and 680 nm using Spectramax i3x. […]

[7] = test system: human peripheral blood mononuclear cells; assay: Cytokine, chemokine and growth factor production in human PBMC cultures (Example 13); type: cell-based
Text: Proof of the antipruritic activity of oleandrin was established in vitro according to Example 13 by measuring its effect upon on the expression of key cytokines, chemokines, and other factors that are part of the innate immune system. An in vitro model of human peripheral blood mononuclear cells was used to determine effects the effects of OCC under different culture conditions: normal (no inflammation) and inflamed by lipopolysaccharide (LPS).
Reagents. Dulbecco's phosphate-buffered saline (Gibco cat. #141190-136), lipopolysaccharide (LPS) (Invitrogen cat. #00-4976-93), Roswell Park Memorial Institute 1640 cell culture medium (Gibco cat. #11835-030), Fetal Bovine Serum (Gibco cat. #A38401-01), penicillin-streptomycin 100× (Gibco cat. #15140-122), CD69 fluorescein isothiocyanate (clone FN50, Invitrogen cat. #11-0699-42), CD56 phycoerythrin (clone CMSSB Invitrogen cat. #12-0567-42), and CD3 Super Bright 645 (clone OKT3 Invitrogen cat. #64-0037-42) were purchased from Thermo Fisher Scientific (Waltham, MA, USA). CD25 Brilliant Violet 421 (clone 2A3 BD cat. #564033) and sodium heparin Vacutainer tubes (BD cat. #367878) were purchased from Becton-Dickinson (Franklin Lakes, NJ, USA). The human erythroleukemia cell line K562 was purchased from American Type Culture Collection (Manassas, VA, USA). Customized Bio-Plex Pro™ human cytokine arrays were purchased from Bio-Rad Laboratories Inc. (Hercules, CA, USA). […]
The two products were handled in the following manner: (1) A stock solution of PBI was prepared in DMSO, and subsequent dilutions were prepared in phosphate-buffered saline. […] The range of concentrations in cell cultures was calculated based on the % oleandrin and ranged from 0.5 to 500 ng oleandrin/mL cell culture medium. […]
Immune cell activation. […] The PBMC were washed twice in PBS and counted, and the density was adjusted to establish 0.18 mL cultures with a cell density at 106/mL, using Roswell Park Memorial Institute 1640 medium containing 10% fetal calf serum and 1% penicillin-streptomycin. […]

[8] = test system: Natural Killer (NK) cells and monocytes; assay: Immune cell activation in PBMC cultures (CD69, CD25; Example 13); type: cell-based, human
Description: Immune cell activation. Peripheral venous blood was drawn from healthy human donors upon written informed consent, as approval by the Sky Lakes Medical Center Institutional Review Board, Federalwide Assurance 2603. The blood was drawn into heparin vacutainer vials, and the peripheral blood mononuclear cells (PBMC) were isolated using Lympholyte Poly by centrifugation for 35 min at 400×g. The PBMC were washed twice in PBS and counted, and the density was adjusted to establish 0.18 mL cultures with a cell density at 106/mL, using Roswell Park Memorial Institute 1640 medium containing 10% fetal calf serum and 1% penicillin-streptomycin.
Cultures were then incubated at 37° C., 5% CO2 for 24 h. The highly inflammatory LPS from Escherichia coli was used as a positive control for immune-cell activation. In parallel, IL-2 was used as a positive control for natural killer (NK)-cell activation, at a concentration of 100 IU/mL in cell culture. Untreated negative control cultures consisted of PBMC exposed to phosphate-buffered saline in the absence of test products. […] The fluorescence intensities for CD3, CD25, CD56, and CD69 were measured by flow cytometry, using an Attune NxT acoustic-focusing flow cytometer (Thermo Fisher Scientific, Waltham, MA, USA). […] The lymphocyte subpopulation was further analyzed for CD25 and CD69 expression on CD3−CD56+ NK cells, CD3+ CD56+ NKT cells, and CD3+CD56− T cells.

[9] = test system: dogs suffering from pruritus or atopic dermatitis; assay: Treatment of pruritus / atopic dermatitis in dogs (Examples 14, 15, 28); type: in vivo, dog; details: oral, 1-2 times daily, 2-6 or 3-5 microg oleandrin/Kg
Description: (§1) A dog presenting with pruritus was administered the aqueous liquid composition of Example 2. It contained 0.1-5 μg OLE/mL. The composition (0.25-1 mL) was administered (1-4 times daily) directly to the dog's mouth, thereby resulting in a combination of buccal and sublingual administration. […] Both inflammation and itchiness were relieved.
as §1, with “the MCT-based” for “the aqueous liquid”, “Example 21.” for “Example 2.”, “contained 12-25” for “contained 0.1-5”, “OLE/mL. A few drops of the” for “OLE/mL. The”, “mL) is” for “mL) was”
A dog presenting with pruritus was administered the aqueous liquid composition of Example 11. The composition was sprayed (1-4 pumps) directly onto the itchy area of the dog and rubbed into the skin and fur/hair. […] Both inflammation and itchiness were relieved.
Oleandrin (oleander extract) was orally administered in two different forms. The oil-based formulation of Example 21 was sprayed onto dog treats and administered between meals or sprayed onto dog food and administered as part of a meal. The chews of Example 27 were orally administered between meals. Both products were administered 1-2 times daily at doses ranging from 2-6 (preferably 3-5) microg oleandrin/Kg of bodyweight. […]

[10] = test system: K562 human myelogenous leukemia target cells; assay: Cytotoxicity towards K562 target cells (CD107a; Example 13); type: cell-based; details: PBMC co-cultured with K562
Text: Natural killer (NK) cell cytotoxicity towards K562 human myelogenous leukemia target cells. The cell surface expression of CD107a (LAMP-1) is a marker for secretory degranulation of NK and activated cytotoxic T cells when they are co-cultured with malignant or virus-infected target cells. Peripheral blood mononuclear cells from healthy human donors were co-cultured with K562 cells in the absence versus presence of test products or matching concentrations of the DMSO solvent control. All treatments, including each concentration of test product and each positive and negative control, were tested in triplicate. CD107a-FITC antibody (6.5 μL/well) was added at the beginning of each culture, along with the protein transport inhibitor BD GolgiStop™, which contains Monensin and blocks intracellular protein transport processes. After 4 h of incubation at 37° C., 5% CO2, the cells were washed in phosphate-buffered saline and stained with CD3-PerCP and CD56-PE antibodies and then fixed in formalin. Flow cytometry analysis was performed where the strategy involved initial gating of the lymphocyte and monocyte subpopulations using the forward/side scatter plot, followed by analysis of T cells and NK cells in the lymphocyte population. The fluorescence intensity of CD107a was evaluated as the mean fluorescence intensity on monocytes, NK cells, and T cells.

SMILES | frequency of IL-4- and IL-10-producing murine CD4+ and CD8+ T cells [1] | IL-6, IFN-γ, and NGF-β ([2]; cytokines involved in dermal inflammation) | TGF-β1, IL12/IL-23p40, and TNF-α ([2]; less robust than the reductions triggered by OE and oleandrin) | concentration at which inhibition of T cell proliferation was seen (T cell proliferation) [µM] | levels of IL-8 and MCP-1 [3] | concentrations at which anti-inflammatory properties have been reported [4] [nM] | IC50 (JAK kinases) [nM] | IC50 [5] [nM] | IL-6, IL-12/IL-23p40, IFN-γ, TNF-α, VEGF, and NGF-β ([2]; DH82 macrophage cultures, inflamed conditions (LPS), 24 hours) | toxicity, release of lactate dehydrogenase [6] | production of cytokines [7] | expression of IFN-γ, G-CSF, and IL-6 ([7]; 0.5 to 500 ng oleandrin/mL) | formation/expression of IL-21, IL-22, IL-23, IL-25, IL-31, IL-33, and TNF-α ([7]; 0.5 to 500 ng oleandrin/mL) | activation of Natural Killer (NK) cells and monocytes [8] | time until improvements became evident [9] [days] | itching and scratching ([9]; as included in an oleander extract) | T cell cytotoxic attack on malignant target cells [10]
CNS(=O)(=O)C[C@H]1CC[C@H](N(C)c2ncnc3[nH]ccc23)CC1 [oclacitinib] | reduces | increases | reductions | 10 | little or no effect | 36 to 249 | 10 to 99 | > 1000 | – | – | – | – | – | – | – | – | –
CO[C@H]1C[C@H](O[C@H]2CC[C@@]3(C)[C@H](CC[C@@H]4[C@@H]3CC[C@]3(C)[C@@H](C5=CC(=O)OC5)[C@@H](OC(C)=O)C[C@]43O)C2)O[C@@H](C)[C@@H]1O [oleandrin] | – | – | – | – | reduced | – | – | – | reductions | no additional toxicity over control vehicle | increased | induced | suppressed | directly activated | 1 to 3 | significant reduction in itching and scratching | increased
